Reference: ChEMBL document CHEMBL6134873, “Identification of Novel Cyclobutane-Based Derivatives as Potent Acetyl-CoA Carboxylase Allosteric Inhibitors for Nonalcoholic Steatohepatitis Drug Discovery” (J Med Chem, 2025)

Key:
[1] = Inhibition of ACC2 in rat skeletal muscle using KH[14C]O3 as substrate measured after 7 mins in presence of ATP by liquid scintillation counter analysis
[2] = target: Acetyl-CoA carboxylase 2 (Homo sapiens, UniProt O00763)
Description: Inhibition of recombinant human ACC2 using acetyl-Co A as substrate incubated for 60 mins in presence of ATP by ADP-Glo assay

[3] = target: Acetyl-CoA carboxylase 1 (Homo sapiens, UniProt Q13085)
Description: Inhibition of recombinant human ACC1 using acetyl-Co A as substrate incubated for 60 mins in presence of ATP by ADP-Glo assay

[4] = Half life in Sprague-Dawley rat at 3 mg/kg, po measured for 0.25 to 24 hrs by LC-MS/MS analysis; assay type: ADME, organism-based; details: in vivo, time 0.25-24 hrs
[5] = Tmax in Sprague-Dawley rat at 3 mg/kg, po measured for 0.25 to 24 hrs by LC-MS/MS analysis; assay type: ADME, organism-based; details: in vivo, time 0.25-24 hrs
[6] = AUC (0 to t) in Sprague-Dawley rat at 1 mg/kg, iv measured for 0.25 to 24 hrs by LC-MS/MS analysis; assay type: ADME, organism-based; details: in vivo, time 0.25-24 hrs
[7] = Clearance in Sprague-Dawley rat at 1 mg/kg, iv measured for 0.25 to 24 hrs by LC-MS/MS analysis; assay type: ADME, organism-based; details: in vivo, time 0.25-24 hrs
[8] = AUC (0 to t) in Sprague-Dawley rat at 3 mg/kg, po measured for 0.25 to 24 hrs by LC-MS/MS analysis; assay type: ADME, organism-based; details: in vivo, time 0.25-24 hrs
[9] = MRT (0 to t) in Sprague-Dawley rat at 3 mg/kg, po measured for 0.25 to 24 hrs by LC-MS/MS analysis; assay type: ADME, organism-based; details: in vivo, time 0.25-24 hrs
[10] = MRT (0 to t) in Sprague-Dawley rat at 1 mg/kg, iv measured for 0.25 to 24 hrs by LC-MS/MS analysis; assay type: ADME, organism-based; details: in vivo, time 0.25-24 hrs
[11] = Oral bioavailability in Sprague-Dawley rat at 3 mg/kg measured for 0.25 to 24 hrs by LC-MS/MS analysis; assay type: ADME, organism-based; details: in vivo, time 0.25-24 hrs
[12] = Volume of distribution in Sprague-Dawley rat at 1 mg/kg, iv measured for 0.25 to 24 hrs by LC-MS/MS analysis; assay type: ADME, organism-based; details: in vivo, time 0.25-24 hrs
[13] = Half life in Sprague-Dawley rat at 1 mg/kg, iv measured for 0.25 to 24 hrs by LC-MS/MS analysis; assay type: ADME, organism-based; details: in vivo, time 0.25-24 hrs
[14] = Cmax in Sprague-Dawley rat at 3 mg/kg, po measured for 0.25 to 24 hrs by LC-MS/MS analysis; assay type: ADME, organism-based; details: in vivo, time 0.25-24 hrs
[15] = target: T1, Cytochrome P450 2B6 (Homo sapiens, UniProt P20813); experiment: Inhibition of CYP2B6 (unknown origin); assay type: ADME
T1 sequence (P20813 whole entry): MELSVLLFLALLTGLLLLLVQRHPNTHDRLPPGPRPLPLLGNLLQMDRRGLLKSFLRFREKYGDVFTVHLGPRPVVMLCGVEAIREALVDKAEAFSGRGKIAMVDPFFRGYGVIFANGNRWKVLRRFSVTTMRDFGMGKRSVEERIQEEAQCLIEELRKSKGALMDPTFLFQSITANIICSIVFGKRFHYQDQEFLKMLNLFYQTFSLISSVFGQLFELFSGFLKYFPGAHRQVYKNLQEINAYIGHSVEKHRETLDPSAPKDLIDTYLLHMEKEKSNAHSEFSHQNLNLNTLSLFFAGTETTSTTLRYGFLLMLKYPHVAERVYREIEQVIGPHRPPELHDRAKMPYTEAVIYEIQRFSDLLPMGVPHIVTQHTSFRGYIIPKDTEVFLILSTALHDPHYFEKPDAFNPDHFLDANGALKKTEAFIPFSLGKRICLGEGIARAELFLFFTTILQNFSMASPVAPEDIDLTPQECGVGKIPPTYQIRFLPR

[16] = target: Voltage-gated inwardly rectifying potassium channel KCNH2 (Homo sapiens, UniProt Q12809); experiment: Inhibition of hERG; assay type: toxicity
Voltage-gated inwardly rectifying potassium channel KCNH2, sequence (Q12809 whole entry): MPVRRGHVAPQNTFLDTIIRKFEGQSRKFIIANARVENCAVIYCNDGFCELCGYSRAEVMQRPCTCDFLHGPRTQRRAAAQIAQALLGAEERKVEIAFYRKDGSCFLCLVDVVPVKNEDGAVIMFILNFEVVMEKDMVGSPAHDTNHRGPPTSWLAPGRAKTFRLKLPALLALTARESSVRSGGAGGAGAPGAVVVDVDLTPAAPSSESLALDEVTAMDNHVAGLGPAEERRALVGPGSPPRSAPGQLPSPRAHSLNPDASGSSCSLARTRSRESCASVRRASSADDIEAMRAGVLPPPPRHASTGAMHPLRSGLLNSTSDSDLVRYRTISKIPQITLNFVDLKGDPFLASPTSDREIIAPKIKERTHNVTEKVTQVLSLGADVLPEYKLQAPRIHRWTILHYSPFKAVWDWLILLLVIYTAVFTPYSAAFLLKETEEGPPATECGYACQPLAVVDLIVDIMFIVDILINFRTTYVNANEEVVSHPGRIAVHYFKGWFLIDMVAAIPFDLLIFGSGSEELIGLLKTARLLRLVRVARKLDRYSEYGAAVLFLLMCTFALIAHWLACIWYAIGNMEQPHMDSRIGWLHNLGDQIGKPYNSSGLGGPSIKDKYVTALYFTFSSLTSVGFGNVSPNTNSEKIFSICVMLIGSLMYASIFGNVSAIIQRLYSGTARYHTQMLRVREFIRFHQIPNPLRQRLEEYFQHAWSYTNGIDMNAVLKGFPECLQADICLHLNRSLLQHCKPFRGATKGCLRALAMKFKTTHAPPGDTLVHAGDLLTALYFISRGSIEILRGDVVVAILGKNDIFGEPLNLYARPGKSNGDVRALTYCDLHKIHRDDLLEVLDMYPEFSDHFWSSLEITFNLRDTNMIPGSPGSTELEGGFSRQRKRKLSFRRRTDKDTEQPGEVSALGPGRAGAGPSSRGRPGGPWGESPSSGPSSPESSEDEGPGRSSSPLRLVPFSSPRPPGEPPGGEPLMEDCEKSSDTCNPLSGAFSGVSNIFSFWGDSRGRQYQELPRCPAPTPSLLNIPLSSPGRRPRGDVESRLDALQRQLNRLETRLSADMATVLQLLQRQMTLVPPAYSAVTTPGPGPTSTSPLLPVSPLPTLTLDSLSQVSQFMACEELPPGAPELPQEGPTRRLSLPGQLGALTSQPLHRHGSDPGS

[17] = Intrinsic clearance in dog liver microsomes; assay type: ADME, Canis lupus familiaris, Microsome; details: read-out: CLH
[18] = target: T2, Cytochrome P450 1A2 (Homo sapiens, UniProt P05177); experiment: Inhibition of CYP1A2 (unknown origin); assay type: ADME
T2 sequence (P05177 whole entry): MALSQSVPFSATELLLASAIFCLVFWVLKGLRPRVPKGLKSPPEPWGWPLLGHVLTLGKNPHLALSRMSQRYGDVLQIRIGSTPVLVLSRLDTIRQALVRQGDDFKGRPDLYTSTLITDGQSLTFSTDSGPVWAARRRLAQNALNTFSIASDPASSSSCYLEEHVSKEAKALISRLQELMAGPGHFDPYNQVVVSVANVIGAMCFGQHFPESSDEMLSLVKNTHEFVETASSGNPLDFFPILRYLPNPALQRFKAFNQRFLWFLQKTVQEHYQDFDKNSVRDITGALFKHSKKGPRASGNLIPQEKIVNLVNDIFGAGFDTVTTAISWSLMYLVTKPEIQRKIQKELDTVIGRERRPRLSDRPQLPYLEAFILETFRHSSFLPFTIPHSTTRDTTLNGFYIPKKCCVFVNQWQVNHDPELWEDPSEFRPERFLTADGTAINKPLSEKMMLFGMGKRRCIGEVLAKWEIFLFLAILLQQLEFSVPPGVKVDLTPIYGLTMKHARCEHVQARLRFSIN

[19] = Intrinsic clearance in rat liver microsomes; assay type: ADME, Microsome; details: read-out: CLH
[20] = Biodistribution in 12 hr-fasted male wild-type Sprague-Dawley rat assessed as increase in ratio of drug concentration in liver/plasma at 3 mg/kg, po measured for 0.25 to 4 hrs by LC-MS/MS analysis; assay type: ADME, organism-based; details: in vivo, time 0.25-4 hrs
[21] = Intrinsic clearance in mouse liver microsomes; assay type: ADME, Microsome; details: read-out: CLH
[22] = target: T3, Cytochrome P450 2C8 (Homo sapiens, UniProt P10632); experiment: Inhibition of CYP2C8 (unknown origin); assay type: ADME
T3 sequence (P10632 whole entry): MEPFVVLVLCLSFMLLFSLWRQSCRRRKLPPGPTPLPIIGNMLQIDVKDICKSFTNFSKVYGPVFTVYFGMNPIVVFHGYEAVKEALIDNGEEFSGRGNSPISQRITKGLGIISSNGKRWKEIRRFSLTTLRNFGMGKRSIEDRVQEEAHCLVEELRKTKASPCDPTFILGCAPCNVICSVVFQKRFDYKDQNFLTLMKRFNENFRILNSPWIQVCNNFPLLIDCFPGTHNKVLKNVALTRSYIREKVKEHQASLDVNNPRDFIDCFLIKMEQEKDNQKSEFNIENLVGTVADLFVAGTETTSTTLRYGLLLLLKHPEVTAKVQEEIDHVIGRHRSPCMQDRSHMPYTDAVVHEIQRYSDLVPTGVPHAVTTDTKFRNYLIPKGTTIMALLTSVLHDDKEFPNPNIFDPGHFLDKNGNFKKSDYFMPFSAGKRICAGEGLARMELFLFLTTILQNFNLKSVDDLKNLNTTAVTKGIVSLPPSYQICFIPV

[23] = target: T4, Cytochrome P450 3A4 (Homo sapiens, UniProt P08684); experiment: Inhibition of CYP3A4 (unknown origin) using testosterone as substrate; assay type: ADME
T4 sequence (P08684 whole entry): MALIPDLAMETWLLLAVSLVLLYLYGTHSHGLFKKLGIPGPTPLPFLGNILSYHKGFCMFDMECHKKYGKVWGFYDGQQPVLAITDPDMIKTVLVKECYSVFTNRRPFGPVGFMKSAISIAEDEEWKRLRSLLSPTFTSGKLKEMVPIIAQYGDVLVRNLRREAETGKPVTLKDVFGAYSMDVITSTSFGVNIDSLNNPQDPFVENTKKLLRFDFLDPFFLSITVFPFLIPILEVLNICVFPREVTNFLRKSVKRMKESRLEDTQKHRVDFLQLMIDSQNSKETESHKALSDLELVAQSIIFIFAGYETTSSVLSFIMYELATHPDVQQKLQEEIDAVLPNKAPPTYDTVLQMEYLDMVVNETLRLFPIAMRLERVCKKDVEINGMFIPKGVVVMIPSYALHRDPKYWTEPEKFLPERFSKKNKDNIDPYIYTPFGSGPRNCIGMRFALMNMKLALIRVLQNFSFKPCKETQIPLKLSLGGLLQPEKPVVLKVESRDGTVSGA

[24] = Intrinsic clearance in human liver microsomes; assay type: ADME, Microsome; details: read-out: CLH
[25] = Intrinsic clearance in monkey liver microsomes; assay type: ADME, Macaca mulatta, Microsome; details: rhesus monkey, read-out: CLH
[26] = Protein binding in rat plasma; assay type: ADME, cell-free; details: read-out: PPB (converted)
[27] = target: T4, Cytochrome P450 3A4; experiment: Inhibition of CYP3A4 (unknown origin) using midazolam as substrate; assay type: ADME
[28] = target: Cytochrome P450 2C19 (Homo sapiens, UniProt P33261); experiment: Inhibition of CYP2C19 (unknown origin); assay type: ADME
Cytochrome P450 2C19, sequence (P33261 whole entry): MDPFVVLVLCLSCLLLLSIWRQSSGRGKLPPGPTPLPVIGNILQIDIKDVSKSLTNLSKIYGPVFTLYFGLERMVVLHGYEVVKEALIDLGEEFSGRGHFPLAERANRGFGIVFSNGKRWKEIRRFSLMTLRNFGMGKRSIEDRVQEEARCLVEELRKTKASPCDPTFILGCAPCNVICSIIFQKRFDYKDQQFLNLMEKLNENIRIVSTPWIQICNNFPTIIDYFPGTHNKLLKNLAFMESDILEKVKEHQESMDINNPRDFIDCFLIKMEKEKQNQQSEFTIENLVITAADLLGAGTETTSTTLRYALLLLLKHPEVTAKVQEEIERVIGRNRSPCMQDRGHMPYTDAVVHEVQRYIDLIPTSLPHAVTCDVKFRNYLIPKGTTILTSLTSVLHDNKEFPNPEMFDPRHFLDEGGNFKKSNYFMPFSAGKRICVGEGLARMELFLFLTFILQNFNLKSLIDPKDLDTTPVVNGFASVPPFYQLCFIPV

[29] = target: Cytochrome P450 2D6 (Homo sapiens, UniProt P10635); experiment: Inhibition of CYP2D6 (unknown origin); assay type: ADME
[30] = Inhibition of fatty acid synthesis in human HepG2 cells preincubated for 1.5 hrs followed by [14C] acetate addition measured after 1.5 hrs by liquid scintillation counter analysis; assay type: functional, cell-based
[31] = Biodistribution in liver of 12 hr-fasted male wild-type Sprague-Dawley rat at 3 mg/kg, po measured after 4 hrs by LC-MS/MS analysis; assay type: ADME, organism-based; details: in vivo
[32] = target: Cytochrome P450 2C9 (Homo sapiens, UniProt P11712); experiment: Inhibition of CYP2C9 (unknown origin); assay type: ADME
Cytochrome P450 2C9, sequence (P11712 whole entry): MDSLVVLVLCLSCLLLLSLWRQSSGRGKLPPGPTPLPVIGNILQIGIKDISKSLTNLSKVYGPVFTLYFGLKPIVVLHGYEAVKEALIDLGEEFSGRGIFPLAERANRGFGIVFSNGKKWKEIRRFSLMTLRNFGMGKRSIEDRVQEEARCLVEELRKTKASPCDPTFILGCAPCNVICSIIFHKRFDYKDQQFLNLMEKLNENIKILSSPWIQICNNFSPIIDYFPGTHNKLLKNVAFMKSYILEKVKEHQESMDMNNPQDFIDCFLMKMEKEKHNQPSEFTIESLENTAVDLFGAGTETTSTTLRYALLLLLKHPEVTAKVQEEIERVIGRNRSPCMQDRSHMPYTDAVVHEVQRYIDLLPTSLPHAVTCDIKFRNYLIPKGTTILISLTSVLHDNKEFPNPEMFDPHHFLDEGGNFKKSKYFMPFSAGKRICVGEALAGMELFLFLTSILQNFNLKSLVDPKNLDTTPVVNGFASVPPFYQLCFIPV

[33] = Protein binding in human plasma; assay type: ADME, cell-free; details: read-out: PPB (converted)

Acetyl-CoA carboxylase 2, sequence (O00763 whole entry): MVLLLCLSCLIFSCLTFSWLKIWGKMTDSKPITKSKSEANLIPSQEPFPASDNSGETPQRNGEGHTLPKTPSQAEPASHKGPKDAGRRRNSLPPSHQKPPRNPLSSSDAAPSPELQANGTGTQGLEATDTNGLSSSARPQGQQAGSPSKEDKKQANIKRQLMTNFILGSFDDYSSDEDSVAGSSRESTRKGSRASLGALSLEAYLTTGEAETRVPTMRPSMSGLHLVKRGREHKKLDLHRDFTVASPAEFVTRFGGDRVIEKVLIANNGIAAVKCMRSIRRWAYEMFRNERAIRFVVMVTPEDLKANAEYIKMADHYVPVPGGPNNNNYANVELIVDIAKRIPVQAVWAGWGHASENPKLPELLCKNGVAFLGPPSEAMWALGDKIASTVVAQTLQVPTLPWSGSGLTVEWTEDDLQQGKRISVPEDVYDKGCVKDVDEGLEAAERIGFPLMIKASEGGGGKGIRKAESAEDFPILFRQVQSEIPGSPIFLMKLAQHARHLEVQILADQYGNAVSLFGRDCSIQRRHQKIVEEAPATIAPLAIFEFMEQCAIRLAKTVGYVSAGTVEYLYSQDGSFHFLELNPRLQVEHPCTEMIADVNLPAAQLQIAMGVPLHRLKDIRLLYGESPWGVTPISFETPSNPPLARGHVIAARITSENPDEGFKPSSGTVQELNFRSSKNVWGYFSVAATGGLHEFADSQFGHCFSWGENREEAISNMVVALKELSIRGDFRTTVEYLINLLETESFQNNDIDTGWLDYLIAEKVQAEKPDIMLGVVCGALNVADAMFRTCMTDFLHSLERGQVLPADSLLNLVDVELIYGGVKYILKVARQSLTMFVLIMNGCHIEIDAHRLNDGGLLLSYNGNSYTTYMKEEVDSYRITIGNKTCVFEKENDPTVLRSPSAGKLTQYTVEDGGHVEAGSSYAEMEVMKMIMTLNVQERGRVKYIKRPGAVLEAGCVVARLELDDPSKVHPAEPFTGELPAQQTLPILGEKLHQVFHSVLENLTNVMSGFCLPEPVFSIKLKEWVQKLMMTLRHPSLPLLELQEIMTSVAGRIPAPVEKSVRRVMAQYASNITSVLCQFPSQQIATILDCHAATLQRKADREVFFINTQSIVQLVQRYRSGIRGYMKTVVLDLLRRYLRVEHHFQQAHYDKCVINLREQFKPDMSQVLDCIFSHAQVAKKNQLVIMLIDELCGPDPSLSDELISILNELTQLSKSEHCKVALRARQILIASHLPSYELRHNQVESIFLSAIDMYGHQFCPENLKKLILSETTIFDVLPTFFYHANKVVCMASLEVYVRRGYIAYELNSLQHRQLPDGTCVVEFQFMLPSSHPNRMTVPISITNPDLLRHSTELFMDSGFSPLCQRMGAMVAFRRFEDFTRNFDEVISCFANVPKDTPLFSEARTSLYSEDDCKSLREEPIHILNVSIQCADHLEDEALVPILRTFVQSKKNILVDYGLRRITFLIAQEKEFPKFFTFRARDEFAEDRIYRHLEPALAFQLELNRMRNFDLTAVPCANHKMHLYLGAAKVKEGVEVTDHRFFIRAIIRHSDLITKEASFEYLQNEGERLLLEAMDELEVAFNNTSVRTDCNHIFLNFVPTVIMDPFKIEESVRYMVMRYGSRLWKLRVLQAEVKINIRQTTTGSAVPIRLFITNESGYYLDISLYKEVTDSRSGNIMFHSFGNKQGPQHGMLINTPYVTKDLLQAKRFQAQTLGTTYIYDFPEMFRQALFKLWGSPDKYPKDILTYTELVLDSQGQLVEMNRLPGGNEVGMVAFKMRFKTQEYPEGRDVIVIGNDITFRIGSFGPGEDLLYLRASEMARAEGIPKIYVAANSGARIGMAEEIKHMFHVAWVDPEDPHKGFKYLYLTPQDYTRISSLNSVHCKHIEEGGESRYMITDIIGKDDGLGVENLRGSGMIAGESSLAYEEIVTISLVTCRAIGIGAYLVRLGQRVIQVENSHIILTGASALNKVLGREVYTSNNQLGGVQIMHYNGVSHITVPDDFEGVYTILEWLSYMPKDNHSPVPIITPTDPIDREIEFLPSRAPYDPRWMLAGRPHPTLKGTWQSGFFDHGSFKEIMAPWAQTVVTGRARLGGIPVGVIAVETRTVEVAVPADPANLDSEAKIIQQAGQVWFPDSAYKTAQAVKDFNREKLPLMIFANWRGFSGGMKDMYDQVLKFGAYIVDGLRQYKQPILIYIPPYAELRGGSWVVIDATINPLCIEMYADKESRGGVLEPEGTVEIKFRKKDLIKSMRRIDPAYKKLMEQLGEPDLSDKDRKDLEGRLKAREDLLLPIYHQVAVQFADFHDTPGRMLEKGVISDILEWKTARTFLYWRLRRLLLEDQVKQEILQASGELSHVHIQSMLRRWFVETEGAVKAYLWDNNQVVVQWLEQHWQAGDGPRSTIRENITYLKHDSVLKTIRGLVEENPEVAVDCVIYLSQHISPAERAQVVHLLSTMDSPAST

O=C(c1c2ccccc2cc2ccccc12)N1CCC(N2CCC[C@@H](C(=O)N3CCOCC3)C2)CC1
IC50 [1]: 61 nM

COc1ccccc1[C@H](Cn1c(=O)n([C@H]2C[C@](C)(C(=O)O)C2)c(=O)c2c(C)c(-c3ncco3)sc21)OC1CCOCC1
IC50 [2]: 16.5 nM | IC50 [3]: 1.37 nM

COc1ccccc1[C@H](Cn1c(=O)n(CC2(C(=O)O)CC2)c(=O)c2c(C)c(-c3ncco3)sc21)OC1CCOCC1
IC50 [3]: 0.85 nM

COc1ccccc1[C@H](Cn1c(=O)n(C2CN(C(=O)N3CC(C)(O)C3)C2)c(=O)c2c(C)c(-c3ncco3)sc21)OC1CCOCC1
IC50 [3]: 9.47 nM

COc1ccccc1[C@H](Cn1c(=O)n(C2CC(F)(F)C2)c(=O)c2c(C)c(-c3ncco3)sc21)OC1CCOCC1
IC50 [3]: 9.42 nM

COc1ccccc1[C@H](Cn1c(=O)n(C2CN(C(=O)N3CCOCC3)C2)c(=O)c2c(C)c(-c3ncco3)sc21)OC1CCOCC1
IC50 [2]: 9.14 nM | IC50 [3]: 1.1 nM

COc1ccccc1[C@H](Cn1c(=O)n(C2CN(CC(F)(F)F)C2)c(=O)c2c(C)c(-c3ncco3)sc21)OC1CCOCC1
IC50 [3]: 0.95 nM

COc1ccccc1[C@H](Cn1c(=O)n(C2CN(C(=O)c3ncc[nH]3)C2)c(=O)c2c(C)c(-c3ncco3)sc21)OC1CCOCC1
IC50 [2]: 6.18 nM | IC50 [3]: 1.52 nM

COc1ccccc1[C@H](Cn1c(=O)n(C2CN(C(=O)N3CC(C)(C(=O)O)C3)C2)c(=O)c2c(C)c(-c3ncco3)sc21)OC1CCOCC1
IC50 [3]: 12.1 nM

COc1ccccc1[C@H](Cn1c(=O)n(C2CN(C(=O)c3ccccn3)C2)c(=O)c2c(C)c(-c3ncco3)sc21)OC1CCOCC1
IC50 [2]: 6.42 nM | IC50 [3]: 2.1 nM

COc1ccccc1[C@H](Cn1c(=O)n(-c2c(C)ccn3ccnc23)c(=O)c2c(C)c(-c3ncco3)sc21)OC1CCOCC1
IC50 [3]: 52.9 nM

COc1ccccc1[C@H](Cn1c(=O)n([C@H]2C[C@](C)(C(N)=O)C2)c(=O)c2c(C)c(-c3ncco3)sc21)OC1CCOCC1
IC50 [3]: 1.05 nM

COc1ccccc1[C@H](Cn1c(=O)n([C@H]2C[C@@H](C(=O)O)C2)c(=O)c2c(C)c(-c3ncco3)sc21)OC1CCOCC1
half-life [4]: 24 min | Tmax [5]: 36 min | AUC(0-t) [6]: 80.8 ng·h/mL | clearance [7]: 180 mL/min/kg | AUC(0-t) [8]: 13.8 ng·h/mL | MRT last [9]: 24 min | MRT last [10]: 6 min | bioavailability [11]: 5.7% | Vd [12]: 2.6 L/kg | IC50 [2]: 5.13 nM | IC50 [3]: 0.79 nM | half-life [13]: 12 min | Cmax [14]: 21.3 ng/mL

COc1ccccc1[C@H](Cn1c(=O)n(C2CN(C(=O)c3ccccc3)C2)c(=O)c2c(C)c(-c3ncco3)sc21)OC1CCOCC1
IC50 [3]: 5.36 nM

COc1ccccc1[C@H](Cn1c(=O)n(C(C)(C)C(=O)O)c(=O)c2c(C)c(-c3ncco3)sc21)OC1CCOCC1 [FIRSOCOSTAT]
IC50 [15]: > 30000 nM | Tmax [5]: 6 min | AUC(0-t) [6]: 409 ng·h/mL | IC50 [16]: > 30000 nM | clearance [7]: 33.3 mL/min/kg | CLint scaled [17]: 7.2 mL/min/kg | IC50 [18]: > 30000 nM | CLint scaled [19]: 4.3 mL/min/kg | Drug uptake [20]: Active | CLint scaled [21]: < 38 mL/min/kg | IC50 [22]: > 30000 nM | IC50 [23]: > 30000 nM | AUC(0-t) [8]: 628 ng·h/mL | MRT last [9]: 246 min | CLint scaled [24]: 6 mL/min/kg | CLint scaled [25]: < 13 mL/min/kg | MRT last [10]: 102 min | fraction unbound [26]: 0.014 | bioavailability [11]: 51.1% | IC50 [27]: > 30000 nM | IC50 [28]: > 30000 nM | Vd [12]: 21.4 L/kg | IC50 [2]: 5.14 nM | IC50 [29]: > 30000 nM | IC50 [3]: 0.49 nM | half-life [13]: 426 min | Cmax [14]: 213 ng/mL | IC50 [30]: 4.8 nM | Drug uptake [31]: Active | IC50 [32]: > 30000 nM | fraction unbound [33]: 0.015
